Earlier results, collected in US10183022B2, “Pharmaceutical composition for treating ulcerative colitis” (EA Pharma Co., Ltd., priority 2014, dated 2019).

Test system: administered patients
Details: among the administered patients, intravenous infusion; cited from earlier work

Infliximab: anti-TNFα antibody, given by intravenous infusion
Patients showing the loss of the response: ≤ 70%
